Numbered stars: 1 amine (or outer) side, 2 acyl side, 3 side chain; on linkers, the order of the positions; unused ones are H or OH. Bridge positions count the residues as written; N and C are the ends. Square brackets hold non-standard residues; d marks the D form. Side chains are listed from the residue outwards. Peptide text beside a SMILES is read from it. * marks the point of attachment. ξ: configuration not given here. Ala(piperidin-4-yl) = O=C([C@H](CC1CCN([*:3])CC1)N[*:1])[*:2]; DOTA = O=C(O)CN1CCN(CC(=O)O)CCN(CC(=O)*)CCN(CC(=O)O)CC1; X3 = O=C([C@H](Cc1ccccc1CN[*:3])N[*:1])[*:2]; 1Nal = N[C@@H](Cc1cccc2ccccc12)C(=O)O; 2Nal = N[C@@H](Cc1ccc2ccccc2c1)C(=O)O; Phe(2-Me) = Cc1ccccc1C[C@H](N)C(=O)O; ξγGlu = O=C(O)C(CCC(=O)[*:2])N[*:1]; pXylylene = c1cc(C[*:2])ccc1C[*:1]; tBuAla = CC(C)(C)C[C@H](N)C(=O)O; NMeD = CN[C@@H](CC(=O)O)C(=O)O; AllylGly = C=CC[C@H](N)C(=O)O; Chg = N[C@H](C(=O)O)C1CCCCC1; αMeP = C[C@@]1(C(=O)O)CCCN1; Ahx = NCCCCCC(=O)O

The assay deals with T1, human DLL3 (Homo sapiens, UniProt Q9NYJ7).
T1 construct: biotin (biotinylated)
T1 sequence (Q9NYJ7 27-618): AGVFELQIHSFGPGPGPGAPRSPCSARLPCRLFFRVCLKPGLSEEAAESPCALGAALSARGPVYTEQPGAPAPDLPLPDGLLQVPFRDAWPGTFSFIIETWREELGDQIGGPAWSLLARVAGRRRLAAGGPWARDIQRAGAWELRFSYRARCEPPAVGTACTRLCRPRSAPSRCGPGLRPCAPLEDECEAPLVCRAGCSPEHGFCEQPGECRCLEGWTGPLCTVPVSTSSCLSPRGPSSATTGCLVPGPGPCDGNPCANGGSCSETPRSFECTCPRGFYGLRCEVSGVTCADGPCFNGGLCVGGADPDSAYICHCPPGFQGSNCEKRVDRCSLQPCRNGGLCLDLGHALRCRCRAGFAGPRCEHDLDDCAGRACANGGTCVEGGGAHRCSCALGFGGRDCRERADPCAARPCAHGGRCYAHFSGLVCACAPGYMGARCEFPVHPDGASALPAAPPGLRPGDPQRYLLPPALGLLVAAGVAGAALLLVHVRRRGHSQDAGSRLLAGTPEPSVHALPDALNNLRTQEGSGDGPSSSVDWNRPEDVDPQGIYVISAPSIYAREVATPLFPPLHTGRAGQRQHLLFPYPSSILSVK
Kind of assay: Affinity determination by Surface Plasmon Resonance (SPR), Biacore, 1:1 binding model. As to conditions: biotinylated human DLL3 on streptavidin chip, 25° C.; NB = nonbinding. The method, boiled down: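 SPR with biotinylated human DLL3 captured on a streptavidin chip, with a reference surface subtracted. Samples were injected at several concentrations at 100 μL/min in phosphate buffer with 137 mM NaCl, 2.7 mM KCl, 0.05% P20 and 2% DMSO. Kinetic and affinity constants came from a 1:1 binding fit.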
(In general: Surface plasmon resonance follows binding to a sensor surface in real time, without labels.)
As for `CC(=O)N[C@H](C(=O)N[C@@H](CO)C(=O)N[C@@H](CC(=O)O)C(=O)N[C@H]1CSCc2ccc(cc2)CSC[C@@H](C(=O)N2CCC[C@@]2(C)C(=O)N[C@@H](Cc2ccccc2)C(=O)N[C@@H](CC(=O)O)C(=O)N[C@H](CCCCNC(=O)CN2CCN(CC(=O)O)CCN(CC(=O)O)CCN(CC(=O)O)CC2)C(N)=O)NC(=O)[C@H](CC(N)=O)NC(=O)[C@H](Cc2c[nH]c3ccccc23)NC(=O)[C@H](CCC(N)=O)NC(=O)[C@H](CC(C)C)NC(=O)[C@H](Cc2cccc3ccccc23)NC1=O)C1CCCCC1` [compound 145, Ac-(Chg)-S-D-C(pDBX)-(1Nal)-L-Q-W-N-C(2)-(aMe-P)-F-D-D-Lys(DOTA)-CONH2] (Ac-[Chg]SDC[1Nal]LQWNC[αMeP]FD[dK](DOTA)-NH2; linker 4-10 via pXylylene), the dissociation constant Kd – broadly, the concentration at which binding is half-saturated – is more than 30 nM.
With `CC(=O)N[C@H](C)C(=O)N[C@@H](CO)C(=O)N[C@@H](CC(=O)O)C(=O)N[C@H]1CSSC[C@@H](C(=O)N2CCC[C@@]2(C)C(=O)N[C@@H](Cc2ccccc2)C(=O)N[C@@H](CC(=O)O)C(=O)N[C@H](CCCCNC(=O)CN2CCN(CC(=O)O)CCN(CC(=O)O)CCN(CC(=O)O)CC2)C(N)=O)NC(=O)[C@H](CC(N)=O)NC(=O)[C@H](Cc2ccc3ccccc3c2)NC(=O)[C@H](CC2CCNCC2)NC(=O)[C@H](CC(C)(C)C)NC(=O)[C@H](Cc2cccc3ccccc23)NC1=O` [compound 146, Ac-(D-Ala)-S-D-C(3)-(1Nal)-(t-Bu-Ala)-[3-(4-piperidinyl)-Ala]-(2Nal)-N-C(3)-(aMe-P)-F -D-D-Lys(DOTA)-CONH2] (Ac-[dA]SDC[1Nal][tBuAla][Ala(piperidin-4-yl)][2Nal]NC[αMeP]FD[dK](DOTA)-NH2; disulfide 4-10) the figure was 0.29 nM; with `CC(=O)N[C@H](C(=O)N[C@@H](CO)C(=O)N[C@@H](CC(=O)O)C(=O)N[C@H]1CSSC[C@@H](C(=O)N2CCC[C@@]2(C)C(=O)N[C@@H](Cc2ccccc2)C(=O)N[C@@H](CC(=O)O)C(=O)N[C@H](CCCCNC(=O)CN2CCN(CC(=O)O)CCN(CC(=O)O)CCN(CC(=O)O)CC2)C(N)=O)NC(=O)[C@H](CC(N)=O)NC(=O)[C@H](Cc2ccc3ccccc3c2)NC(=O)[C@H](CCC(N)=O)NC(=O)[C@H](CC(C)(C)C)NC(=O)[C@H](Cc2cccc3ccccc23)NC1=O)C1CCCCC1` [compound 148, Ac-(Chg)-S-D-C(3)-(1Nal)-(t-Bu-Ala)-Q-(2Nal)-N-C(3)-(aMe-P)-F -D-D-Lys(DOTA)-CONH2] (Ac-[Chg]SDC[1Nal][tBuAla]Q[2Nal]NC[αMeP]FD[dK](DOTA)-NH2; disulfide 4-10), 0.29 nM; with `CC(=O)N[C@H](C)C(=O)N[C@@H](CO)C(=O)N[C@@H](CC(=O)O)C(=O)N[C@H]1CSSC[C@@H](C(=O)N2CCC[C@@]2(C)C(=O)N[C@@H](Cc2ccccc2)C(=O)N(C)[C@@H](CC(=O)O)C(=O)N[C@H](CCCCNC(=O)CN2CCN(CC(=O)O)CCN(CC(=O)O)CCN(CC(=O)O)CC2)C(=O)O)NC(=O)[C@H](CC(N)=O)NC(=O)[C@H](Cc2ccc3ccccc3c2)NC(=O)[C@H](CCC(N)=O)NC(=O)[C@H](CC(C)(C)C)NC(=O)[C@H](Cc2cccc3ccccc23)NC1=O` [compound 149, Ac-(D-Ala)-S-D-C(3)-(1Nal)-(t-Bu-Ala)-Q-(2Nal)-N-C(3)-(aMe-P)-F-(NMe-D)-D-Lys(DOTA)-CONH2] (Ac-[dA]SDC[1Nal][tBuAla]Q[2Nal]NC[αMeP]F[NMeD][dK](DOTA)-OH; disulfide 4-10), more than 30 nM.
For `CC(=O)N[C@H](C)C(=O)N[C@@H](CO)C(=O)N[C@@H](CC(=O)O)C(=O)N[C@H]1CSSC[C@@H](C(=O)N2CCC[C@@]2(C)C(=O)N[C@@H](Cc2ccccc2C)C(=O)N[C@@H](CC(=O)O)C(N)=O)NC(=O)[C@H](CC(N)=O)NC(=O)[C@H](Cc2ccc3ccccc3c2)NC(=O)[C@H](CCCCNC(=O)CCC(NC(=O)CN2CCN(CC(=O)O)CCN(CC(=O)O)CCN(CC(=O)O)CC2)C(=O)O)NC(=O)[C@H](CC(C)(C)C)NC(=O)[C@H](Cc2cccc3ccccc23)NC1=O` (stereo partly drawn) [compound 152, Ac-(D-Ala)-S-D-C(3)-(1Nal)-(t-Bu-Ala)-[L-Lys(yE-DOTA)]-(2Nal)-N-C(3)-(aMe-P)-(2Me-F)-D-CONH2] (Ac-[dA]SDC[1Nal][tBuAla]K([ξγGlu-DOTA])[2Nal]NC[αMeP][Phe(2-Me)]D-NH2; disulfide 4-10), the affinity, expressed as Kd, was 0.51 nM.
The compound `Cc1ccccc1C[C@H](NC(=O)[C@]1(C)CCCN1C(=O)[C@@H]1CSSC[C@H](NC(=O)[C@H](CC(=O)O)NC(=O)[C@H](CO)NC(=O)CCCCCNC(=O)CN2CCN(CC(=O)O)CCN(CC(=O)O)CCN(CC(=O)O)CC2)C(=O)N[C@@H](Cc2cccc3ccccc23)C(=O)N[C@@H](CC(C)(C)C)C(=O)N[C@@H](CCC(N)=O)C(=O)N[C@@H](Cc2ccc3ccccc3c2)C(=O)N[C@@H](CC(N)=O)C(=O)N1)C(=O)N[C@@H](CC(=O)O)C(N)=O` [compound 155, DOTA-Ahx-S-D-C(3)-(1Nal)-(t-Bu-Ala)-Q-(2Nal)-N-C(3)-(aMe-P)-(2Me-F)-D-CONH2] ({DOTA-Ahx}-SDC[1Nal][tBuAla]Q[2Nal]NC[αMeP][Phe(2-Me)]D-NH2; disulfide 3-9) returned a Kd of 0.11 nM.
Under `CC(C)(C)C[C@@H]1NC(=O)[C@H](Cc2cccc3ccccc23)NC(=O)[C@@H](NC(=O)[C@H](CC(=O)O)NC(=O)[C@H](CO)NC(=O)CCCCCNC(=O)CN2CCN(CC(=O)O)CCN(CC(=O)O)CCN(CC(=O)O)CC2)CSSC[C@@H](C(=O)N2CCC[C@@]2(C)C(=O)N[C@@H](Cc2ccccc2)C(=O)N[C@@H](CC(=O)O)C(=O)O)NC(=O)[C@H](CC(N)=O)NC(=O)[C@H](Cc2ccc3ccccc3c2)NC(=O)[C@H](CCC(N)=O)NC1=O` [compound 156, DOTA-Ahx-S-D-C(3)-(1Nal)-(t-Bu-Ala)-Q-(2Nal)-N-C(3)-(aMe-P)-F -D-COOH] ({DOTA-Ahx}-SDC[1Nal][tBuAla]Q[2Nal]NC[αMeP]FD-OH; disulfide 3-9) stands 0.11 nM.
Under `CC(=O)N[C@H](C)C(=O)N[C@@H](CO)C(=O)N[C@@H](CC(=O)O)C(=O)N[C@H]1CSSC[C@@H](C(=O)N2CCC[C@@]2(C)C(=O)N[C@@H](Cc2ccccc2CNC(=O)CN2CCN(CC(=O)O)CCN(CC(=O)O)CCN(CC(=O)O)CC2)C(=O)N[C@@H](CC(=O)O)C(N)=O)NC(=O)[C@H](CC(N)=O)NC(=O)[C@H](Cc2ccc3ccccc3c2)NC(=O)[C@H](CCC(N)=O)NC(=O)[C@H](CC(C)(C)C)NC(=O)[C@H](Cc2cccc3ccccc23)NC1=O` [compound 159, Ac-(D-Ala)-S-D-C(3)-(1Nal)-(t-Bu-Ala)-Q-(2Nal)-N-C(3)-(aMe-P)-[OAF(DOTA)]-D-CONH2] (Ac-[dA]SDC[1Nal][tBuAla]Q[2Nal]NC[αMeP][X3](DOTA)D-NH2; disulfide 4-10) stands more than 30 nM.
With `CC(=O)N[C@H](C)C(=O)N[C@@H](CO)C(=O)N[C@@H](CC(=O)O)C(=O)N[C@H]1C/C=C/C[C@@H](C(=O)N2CCC[C@@]2(C)C(=O)N[C@@H](Cc2ccccc2)C(=O)N[C@@H](CC(=O)O)C(=O)N[C@H](CCCCNC(=O)CN2CCN(CC(=O)O)CCN(CC(=O)O)CCN(CC(=O)O)CC2)C(N)=O)NC(=O)[C@H](CC(N)=O)NC(=O)[C@H](Cc2ccc3ccccc3c2)NC(=O)[C@H](CCC(N)=O)NC(=O)[C@H](CC(C)(C)C)NC(=O)[C@H](Cc2cccc3ccccc23)NC1=O` [compound 161, Ac-(D-Ala)-S-D-AllyG(4)-(1Nal)-(t-Bu-Ala)-Q-(2Nal)-N-AllyG(4)-(aMe-P)-F -D-D-Lys(DOTA)-CONH2] (Ac-[dA]SD[AllylGly][1Nal][tBuAla]Q[2Nal]N[AllylGly][αMeP]FD[dK](DOTA)-NH2; staple (E) 4-10), the dissociation constant Kd worked out at 0.24 nM.

(Values after patent US20250186541A1, “DLL3 TARGETING PEPTIDES AND CONSTRUCTS THEREOF” (MARIANA ONCOLOGY INC., priority 2023, published 2025).)
